From patent US10174024B2, “5H-pyrido[3,2-B]indole compounds as anticancer agents” (BRISTOL-MYERS SQUIBB COMPANY, priority 2015, dated 2019)

Biological target: BRD4 (Homo sapiens, UniProt O60885)
Assay: Time Resolved Fluorescence Resonance Energy Transfer (TR-FRET) binding assay, FRET BRD4
Conditions: one of the FRET assays described (BRD4 bromodomain construct not specified); read-out: FRET BRD4 IC50

IC50 | Compound
< 1 nM | [2H]C([2H])([2H])c1nnn(C)c1-c1cnc2c3ccc(N4CCC(S(C)(=O)=O)CC4)cc3n(C(c3ncccc3F)C3CCOCC3)c2c1 (centres unmarked) [Example 70, 3-Fluoro-2-{[7-(4-methanesulfonylpiperidin-1-yl)-3-[4-(^2H3)methyl-1-methyl-1H-1,2,3-triazol-5-yl]-5H-pyrido[3,2-b]indol-5-yl](oxan-4-yl)methyl}pyridine]
< 1500 nM | [2H]C([2H])([2H])c1nnn(C)c1-c1cnc2c3c(N4CCC(F)(F)CC4)ccc(S(C)(=O)=O)c3n(C(c3ccccc3)C3CCC(F)(F)CC3)c2c1 (centres unmarked) [Example 73, 1-{5-[(4,4-Difluorocyclohexyl)(phenyl)methyl]-6-methanesulfonyl-3-[4-(^2H3)methyl-1-methyl-1H-1,2,3-triazol-5-yl]-5H-pyrido[3,2-b]indol-9-yl}-4,4-difluoropiperidine]
< 1500 nM | [2H]C([2H])([2H])c1nnn(C)c1-c1cnc2c3c(N4CCC(F)(F)CC4)ccc(S(C)(=O)=O)c3n(C(c3ccccc3)C3CCC(F)(F)CC3)c2c1 (centres unmarked) [Example 74, 1-{5-[(4,4-Difluorocyclohexyl)(phenyl)methyl]-6-methanesulfonyl-3-[4-(^2H3)methyl-1-methyl-1H-1,2,3-triazol-5-yl]-5H-pyrido[3,2-b]indol-9-yl}-4,4-difluoropiperidine]

Compound | IC50
Cc1nnn(C)c1-c1cnc2c3ccc(N4CCC(F)(F)CC4)cc3n([C@H](c3ccccc3)C3CCOCC3)c2c1 [Example 71, 1-[3-(Dimethyl-1H-1,2,3-triazol-5-yl)-5-[(S)-oxan-4-yl(phenyl)methyl]-5H-pyrido[3,2-b]indol-7-yl]-4,4-difluoropiperidine] | < 1 nM
Cc1nnn(C)c1-c1cnc2c3ccc(N4CCC(C(F)(F)F)CC4)cc3n([C@H](c3ccccc3)C3CCOCC3)c2c1 [Example 72, 1-[3-(Dimethyl-1H-1,2,3-triazol-5-yl)-5-[(S)-oxan-4-yl(phenyl)methyl]-5H-pyrido[3,2-b]indol-7-yl]-4-(trifluoromethyl)piperidine] | < 1 nM
